{
  "source": "patent US11554171B2",
  "about": "“Compounds and methods for the targeted degradation of bromodomain-containing proteins” (Arvinas Operations, Inc., priority 2015, dated 2023)",
  "key": {"22RV-1 tumor xenograft": {"test_system": "22RV-1 tumor xenograft", "assay": "In vivo 22Rv1 xenografts efficacy", "design": "species or system mice", "details": "14 day", "protocol": "(§1) Mice were housed in pathogen-free animal facilities at New England Life Sciences (NELS, New Haven, Conn.). All experiments were conducted under an IACUC protocol that was approved by the NELS IACUC committee. Male Nu/Nu mice and CB17 SCID mice were obtained at 4-5 weeks age from Charles River Laboratories and implanted subcutaneously with 5×10^6 22Rv1 cells or 5×10^6 VCaP cells in Matrigel (Corning Life Sciences). After 10-14 days, mice bearing >200 mm^3 tumors were randomized into indicated number of groups with ten mice in each group while ensuring identical (±5 mm^3) mean tumor volume in each group. Dosing was carried out through the indicated route and with the indicated schedule for each drug for up to three weeks, depending on the experiment. Mice were sacrificed eight hours after the final dose. Blood was collected, processed to plasma, and flash frozen for PK analysis. Tissues were harvested and flash frozen for further analysis. All PK analysis was carried out at Drumetix Laboratories (Greensboro, N.C.). 2 out of 10 animals in each study arm were randomly excluded in pharmacodynamic analysis, for greater technical ease of running a 20-well protein gel. For PSA ELISA, only samples with at least 25 uL plasma remaining after PK analysis were utilized using the Cell Signaling PathScan® Total PSA/KLK3 Sandwich ELISA Kit #14119 following the manufacturer's protocol. […]"}, "BRD3": {"target": "T1, BRD3 (Homo sapiens, UniProt Q15059)", "T1 construct": "endogenous in cells; host or cells: 22Rv1, VCaP, LnCaP95", "T1 sequence (Q15059 whole entry)": "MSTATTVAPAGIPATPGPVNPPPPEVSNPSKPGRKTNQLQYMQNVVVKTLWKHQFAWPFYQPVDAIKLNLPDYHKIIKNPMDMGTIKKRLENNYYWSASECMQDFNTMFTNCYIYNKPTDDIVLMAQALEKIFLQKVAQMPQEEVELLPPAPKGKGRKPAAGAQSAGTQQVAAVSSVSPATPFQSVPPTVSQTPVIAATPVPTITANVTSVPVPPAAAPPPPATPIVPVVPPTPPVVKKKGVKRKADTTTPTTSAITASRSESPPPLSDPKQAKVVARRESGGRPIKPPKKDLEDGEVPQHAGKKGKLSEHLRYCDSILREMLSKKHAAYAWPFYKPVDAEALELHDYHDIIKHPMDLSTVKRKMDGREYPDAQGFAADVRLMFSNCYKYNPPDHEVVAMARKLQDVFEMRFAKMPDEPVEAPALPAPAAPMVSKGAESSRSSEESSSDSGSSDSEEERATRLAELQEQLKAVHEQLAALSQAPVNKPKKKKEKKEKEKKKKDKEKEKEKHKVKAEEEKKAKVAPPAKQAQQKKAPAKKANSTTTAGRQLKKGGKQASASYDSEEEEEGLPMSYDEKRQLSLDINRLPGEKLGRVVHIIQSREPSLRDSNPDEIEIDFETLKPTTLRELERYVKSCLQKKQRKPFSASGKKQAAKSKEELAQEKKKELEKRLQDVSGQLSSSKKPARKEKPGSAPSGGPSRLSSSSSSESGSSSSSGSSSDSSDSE", "assay": "Immunoblotting, BRD3 degradation", "type": "cell-based", "details": "22RV-1, VCaP, and LnCaP95 cells (FIG. 1)", "text": "(§2) 22Rv1 and VCaP cell lines were purchased from ATCC. LnCap95 cells were a generous gift from Dr. Alan Meeker at The Johns Hopkins University School of Medicine. BRD2 (#5848), BRD4 (#13440), PARP (#9532), c-Myc (#5605) antibodies were purchased from cell signaling. BRD3 (sc-81202) antibody was purchased from Santa Cruz Biotech. Antibodies used for immunohistochemistry were c-MYC (abcam #ab32072) and BRD4 (Bethyl Laboratories #a301-985a50). Actin and Tubulin antibodies were purchased from Sigma.\n(§3) Cells were lysed in RIPA buffer (Thermo Fisher Cat #89900) supplemented with protease inhibitors (Pierce™ Protease Inhibitor Tablets, EDTA-free Cat #88266). Lysates were centrifuged at 16,000×g and supernatants were used for SDS-PAGE. Western blotting was carried out following standard protocols."}, "BRD4 [1]": {"target": "T2, BRD4 (Homo sapiens, UniProt O60885)", "assay": "BRD4 degradation in 22RV-1 tumor xenograft study", "type": "in vivo", "design": "from tissue; host or cells: 22Rv1 tumour xenograft harvested from mice", "details": "14-day 22RV-1 tumor xenograft study; dosed subcutaneously to mice at 10 mg/kg (qd) for 2 weeks (FIG. 6)", "protocol": "As a comparison, OTX-015 was also included (50 mg/kg, p.o., qd). Example 77 was dosed subcutaneously to mice at 10 mg/kg (qd) for 2 weeks.\nas §1, with “gel.” for “gel. For PSA ELISA, only samples with at least 25 uL plasma remaining after PK analysis were utilized using the Cell Signaling PathScan® Total PSA/KLK3 Sandwich ELISA Kit #14119 following the manufacturer's protocol.”"}, "c-myc in 22RV-1 cells": {"test_system": "c-myc in 22RV-1 cells", "assay": "Human c-myc ELISA assay", "type": "cell-based", "details": "for Emax / DC50: Homo sapiens; for Emax: 22Rv1, 18 h, read-out: Degradation of BRD4: Maximum inhibition (%) c-Myc ELISA in 22RV1 cells; for DC50: 22Rv1, read-out: Degradation of BRD4: DC50 (uM) c-Myc ELISA in 22RV1 cells", "outline": "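22RV-1 cells treated 18 h with 8-point 1:3 compound dilutions (final top 300 nM or 1 μM, 0.1% DMSO). Cells lysed in RIPA buffer with protease/phosphatase inhibitors, and c-myc protein in cleared lysate quantified by ELISA against a standard curve. DC50 reported for c-myc suppression.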"}, "22RV-1 cells [2]": {"test_system": "22RV-1 cells", "assay": "Cell proliferation assay (CellTiter-Glo)", "type": "cell-based", "details": "FIG. 4", "protocol": "22RV-1 cells are seeded at 5,000 cells/well at a volume of 75 μL/well in RPMI+10% FBS media in 96-well plates and grown overnight at 37 C. Cells are dosed with compounds at 4× concentration diluted in 0.4% DMSO; compounds are serially diluted 1:3 for 10-point dose curve. 25 ul of compounds is added to cells for a final concentration starting at 300 nM-0.3 nM in 0.1% DMSO and incubated for 72 hrs. In a separate plate, 100 ul of 5,000 cells/well are plated in 8 wells, 100 ul of CellTiter-Glo (CellTiter-Glo® Luminescent Cell Viability Assay, Promega #G7573) is added and incubated for 30 minutes, then read on luminometer to assess initial signal for cell growth. After 72 hrs, 100 ul of CellTiter-Glo is added and incubated for 30 minutes, then read on luminometer. Data is analyzed and plotted using GraphPad Prism software."}, "22RV-1 cells [3]": {"test_system": "22RV-1 cells", "assay": "Apoptosis assay (Caspase-Glo 3/7)", "type": "cell-based", "details": "FIG. 5", "protocol": "22RV-1 cells are seeded at 5,000 cells/well at a volume of 75 μL/well in RPMI+10% FBS media in 96-well plates and grown overnight at 37 C. Cells are dosed with compounds at 4× concentration diluted in 0.4% DMSO; compounds are serially diluted 1:3 for 8-point dose curve. 25 ul of compounds is added to cells for a final concentration starting at 300 nM-0.3 nM in 0.1% DMSO and incubated for 48 hrs. After 48 hrs, 100 ul of Caspase-Glo® 3/7 (Promega Caspase-Glo 3/7 Assay #G8093 is added and incubated for 30 minutes, then read on luminometer. Data is analyzed and plotted using GraphPad Prism software."}, "BRD4 [4]": {"target": "T2, BRD4", "assay": "Immunoblotting, BRD4 degradation", "type": "cell-based", "design": "compounds which function to recruit endogenous proteins, e.g., BRd4, to E3 Ubiquitin Ligase for ubiquitination and degradation; endogenous in cells; host or cells: 22Rv1, VCaP, LnCaP95", "text": "as §2, §3"}, "BRD2": {"target": "T3, BRD2 (Homo sapiens, UniProt P25440)", "T3 construct": "endogenous in cells; host or cells: 22Rv1, VCaP, LnCaP95", "T3 sequence (P25440 whole entry)": "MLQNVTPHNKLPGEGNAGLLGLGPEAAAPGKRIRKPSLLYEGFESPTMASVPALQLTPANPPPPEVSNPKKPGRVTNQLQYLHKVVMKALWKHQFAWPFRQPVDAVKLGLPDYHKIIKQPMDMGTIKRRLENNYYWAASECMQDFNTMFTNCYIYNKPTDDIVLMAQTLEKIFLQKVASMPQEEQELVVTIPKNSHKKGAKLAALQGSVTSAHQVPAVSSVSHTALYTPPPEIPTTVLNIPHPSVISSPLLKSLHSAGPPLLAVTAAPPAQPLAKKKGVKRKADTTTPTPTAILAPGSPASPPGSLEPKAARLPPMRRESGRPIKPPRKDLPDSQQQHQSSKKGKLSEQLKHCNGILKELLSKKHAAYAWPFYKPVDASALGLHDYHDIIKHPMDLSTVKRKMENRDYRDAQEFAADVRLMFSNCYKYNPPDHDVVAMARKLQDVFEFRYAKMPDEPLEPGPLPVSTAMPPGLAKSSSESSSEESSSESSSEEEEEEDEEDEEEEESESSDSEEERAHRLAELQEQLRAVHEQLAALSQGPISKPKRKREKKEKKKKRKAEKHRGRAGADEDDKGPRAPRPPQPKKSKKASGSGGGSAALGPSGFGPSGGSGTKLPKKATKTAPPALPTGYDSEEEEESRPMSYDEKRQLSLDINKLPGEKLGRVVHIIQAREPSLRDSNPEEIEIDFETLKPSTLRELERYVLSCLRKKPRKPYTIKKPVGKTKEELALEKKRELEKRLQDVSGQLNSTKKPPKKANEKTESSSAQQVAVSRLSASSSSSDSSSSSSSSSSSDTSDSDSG", "assay": "Immunoblotting, BRD2 degradation", "type": "cell-based", "details": "22RV-1, VCaP, and LnCaP95 cells (FIG. 1)", "text": "as §2, §3"}, "SU-DHL-6 xenografts": {"test_system": "SU-DHL-6 xenografts", "assay": "In vivo SU-DHL-6 xenografts efficacy", "details": "CB17 SCID mice", "protocol": "In vivo SU-DHL-6 Xenografts Efficacy\nThe 4-5 weeks old male CB17 SCID mice were implanted subcutaneously with 5 million SU-DH-L6 GCB-DLBCL cells (in 200 ul volume of 3:1 matrigel:PBS). After 14 days, mice bearing 180-200 mm^3 tumors were randomized into three groups with ten mice in each group while ensuring identical (±5 mm^3) mean tumor volume in each group. […] Tumor volume was monitored twice per week using calipers and body weights were determined daily during the course of the study."}},
  "data": [
    {"smiles": "Cc1sc2c(c1C)C(c1ccc(Cl)cc1)=N[C@@H](CC(=O)Nc1ccc(O)cc1)c1nnc(C)n1-2", "note": "[OTX-015, reference compound]", "values": [
      {"measurement": "tumor response in 22RV-1 mice tumor xenograft model, comparator", "setting": "22RV-1 tumor xenograft; OTX-015 as comparison (FIG. 7)", "result": "tumor growth inhibition"}
    ]},
    {"smiles": "Cc1ncsc1-c1ccc([C@H](C)NC(=O)[C@@H]2C[C@@H](O)CN2C(=O)[C@@H](NC(=O)COCCCOCCNC(=O)C[C@@H]2N=C(c3ccc(Cl)cc3)c3c(sc(C)c3C)-n3c(C)nnc32)C(C)(C)C)cc1", "note": "[Example 77, (2S, 4R)-1-[(2S)-2-{2-[3-(2-{2-[(9S)-7-(4-chlorophenyl)-4,5,13-trimethyl-3-thia-1,8,11,12-tetraazatricyclo[8.3.0.0^2,^6]trideca-2(6),4,7,10,12-pentaen-9-yl]acetamido}ethoxy)propoxy]acetamido}-3,3-dimethylbutanoyl]-4-hydroxy-N-[(1S)-1-[4-(4-methyl-1,3-thiazol-5-yl)phenyl]ethyl]pyrrolidine-2-carboxamide]", "values": [
      {"measurement": "degradation of BRD3", "setting": "BRD3", "result": "degradation"},
      {"measurement": "degradation of BRD4 in tumor xenograft", "setting": "BRD4 [1]", "result": "degradation of BRD4"},
      {"measurement": "suppression of cellular c-MYC levels measured by ELISA", "setting": "c-myc in 22RV-1 cells; FIG. 3", "result": "suppression"},
      {"measurement": "Emax", "setting": "c-myc in 22RV-1 cells", "result": 100, "unit": "%"},
      {"measurement": "DC50", "setting": "c-myc in 22RV-1 cells", "result": "< 0.01", "unit": "µM"},
      {"measurement": "proliferation inhibition of prostate cancer cell growth", "setting": "22RV-1 cells [2]", "result": "proliferation inhibition"},
      {"measurement": "caspase activation in prostate cancer cell lines", "setting": "22RV-1 cells [3]", "result": "caspase activation"},
      {"measurement": "tumor response in 22RV-1 mice tumor xenograft model", "setting": "22RV-1 tumor xenograft; subcutaneous dosing (FIG. 7)", "result": "tumor regression"},
      {"measurement": "degradation of BRD4", "setting": "BRD4 [4]; 22RV-1, VCaP, and LnCaP95 cells (FIG. 1)", "result": "degradation"},
      {"measurement": "BRD4 degradation after pretreatment with an excess of VHL ligand ARV-056", "setting": "BRD4 [4]; FIG. 2", "result": "blocked"},
      {"measurement": "BRD4 degradation in presence of proteasome inhibitor carfilzomib", "setting": "BRD4 [4]; FIG. 2", "result": "blocked"},
      {"measurement": "degradation of BRD2", "setting": "BRD2", "result": "degradation"}
    ]},
    {"smiles": "Cc1ncsc1-c1ccc([C@H](C)NC(=O)[C@@H]2C[C@@H](O)CN2C(=O)[C@@H](NC(=O)c2cc3cc(O[C@H]4C[C@@H](NC(=O)C[C@@H]5N=C(c6ccc(Cl)cc6)c6c(sc(C)c6C)-n6c(C)nnc65)C4)ccc3o2)C(C)(C)C)cc1", "note": "[Example 195, (2S,4R)-1-[(2S)-3,3-dimethyl-2-({5-[(1,3cis)-3-{2-[(9S)-7-(4-chlorophenyl)-4,5,13-trimethyl-3-thia-1,8,11,12-tetraazatricyclo[8.3.0.0^2,^6]trideca-2(6),4,7,10,12-pentaen-9-yl]acetamido}cyclobutoxy]-1-benzofuran-2-yl}formamido)butanoyl]-4-hydroxy-N-[(1S)-1-[4-(4-methyl-1,3-thiazol-5-yl)phenyl]ethyl]pyrrolidine-2-carboxamide]", "values": [
      {"measurement": "Emax", "setting": "c-myc in 22RV-1 cells", "result": 100, "unit": "%"},
      {"measurement": "DC50", "setting": "c-myc in 22RV-1 cells", "result": "< 0.01", "unit": "µM"},
      {"measurement": "in vivo growth of SU-DHL-6 xenografts", "setting": "SU-DHL-6 xenografts; 6MPK Q3D iv dosing, n=10 (FIG. 10)", "result": "tumor regression"}
    ]},
    {"smiles": "Cc1sc2c(c1C)C(c1ccc(Cl)cc1)=N[C@@H](CC(=O)Nc1ccc(O)cc1)c1nnc(C)n1-2", "note": "[OTX015, reference compound]", "values": [
      {"measurement": "in vivo growth of SU-DHL-6 xenografts", "setting": "SU-DHL-6 xenografts; daily po administration of 25MPK (FIG. 10)", "result": "no effect"}
    ]}
  ]
}
